Measured values taken from PubChem BioAssay (NCI).
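Briefly, cells in 96-well plates were exposed to five compound concentrations for 48 h, and endpoints were estimated by linear interpolation. GI50 = concentration required for 50% inhibition of growth. At the TGI there is no net growth.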

Key:
Test in all cases: DTP human tumour cell line panel, 48 h
HL-60(TB) leukemia = tested on: HL-60(TB) leukemia
U251 CNS = tested on: U251 CNS
SNB-75 CNS = tested on: SNB-75 CNS
SK-MEL-5 melanoma = tested on: SK-MEL-5 melanoma
LOX IMVI melanoma = tested on: LOX IMVI melanoma
CCRF-CEM leukemia = tested on: CCRF-CEM leukemia
HCC-2998 colon = tested on: HCC-2998 colon
NCI-H522 lung = tested on: NCI-H522 lung
T-47D breast = tested on: T-47D breast
SK-MEL-28 melanoma = tested on: SK-MEL-28 melanoma
SK-MEL-2 melanoma = tested on: SK-MEL-2 melanoma
HCT-15 colon = tested on: HCT-15 colon
MDA-MB-231 breast = tested on: MDA-MB-231 breast
SF-539 CNS = tested on: SF-539 CNS
UACC-257 melanoma = tested on: UACC-257 melanoma
DU-145 prostate = tested on: DU-145 prostate
SW-620 colon = tested on: SW-620 colon
UO-31 renal = tested on: UO-31 renal
OVCAR-5 ovarian = tested on: OVCAR-5 ovarian
SN12C renal = tested on: SN12C renal
NCI-H226 lung = tested on: NCI-H226 lung
MDA-MB-435 = tested on: MDA-MB-435
MALME-3M melanoma = tested on: MALME-3M melanoma
KM12 colon = tested on: KM12 colon
A549 NSCLC = tested on: A549 NSCLC
ACHN renal = tested on: ACHN renal
NCI-H460 lung = tested on: NCI-H460 lung
SK-OV-3 ovarian = tested on: SK-OV-3 ovarian
UACC-62 melanoma = tested on: UACC-62 melanoma
HT29 colon = tested on: HT29 colon
OVCAR-4 ovarian = tested on: OVCAR-4 ovarian
SNB-19 CNS = tested on: SNB-19 CNS
BT-549 breast = tested on: BT-549 breast
K-562 leukemia = tested on: K-562 leukemia
A498 renal = tested on: A498 renal
SF-268 CNS = tested on: SF-268 CNS
HCT-116 colon = tested on: HCT-116 colon
RXF 393 renal = tested on: RXF 393 renal
HS 578T breast = tested on: HS 578T breast
IGROV1 ovarian = tested on: IGROV1 ovarian
SF-295 CNS = tested on: SF-295 CNS
786-0 renal = tested on: 786-0 renal
NCI/ADR-RES ovarian = tested on: NCI/ADR-RES ovarian
EKVX NSCLC = tested on: EKVX NSCLC
OVCAR-3 ovarian = tested on: OVCAR-3 ovarian
CAKI-1 renal = tested on: CAKI-1 renal
MOLT-4 leukemia = tested on: MOLT-4 leukemia
OVCAR-8 ovarian = tested on: OVCAR-8 ovarian
TK-10 renal = tested on: TK-10 renal
RPMI-8226 leukemia = tested on: RPMI-8226 leukemia
M14 melanoma = tested on: M14 melanoma
MCF7 breast = tested on: MCF7 breast
HOP-62 NSCLC = tested on: HOP-62 NSCLC
PC-3 prostate = tested on: PC-3 prostate
HOP-92 NSCLC = tested on: HOP-92 NSCLC
SR leukemia = tested on: SR leukemia
NCI-H23 lung = tested on: NCI-H23 lung
COLO 205 colon = tested on: COLO 205 colon

In the case of `Cc1ccc2c(n1)C(=O)C(Cl)=C(Nc1ccc(C(F)(F)F)cc1)C2=O`, the GI50 (HL-60(TB) leukemia) is reported as 1.4 µM, the TGI (HL-60(TB) leukemia) is reported as 3.76 µM and the GI50 (U251 CNS) is reported as 4.93 µM. For the same compound, the TGI (U251 CNS) was 20.5 µM, the GI50 (SNB-75 CNS) was > 100 µM and the TGI (SNB-75 CNS) was > 100 µM. The GI50 (SK-MEL-5 melanoma) was 6.03 µM, the TGI (SK-MEL-5 melanoma) was 21.2 µM and the GI50 (LOX IMVI melanoma) was 1.22 µM. For the same compound, the TGI (LOX IMVI melanoma) was 3.04 µM, the GI50 (CCRF-CEM leukemia) was 0.879 µM and the TGI (CCRF-CEM leukemia) was 3.89 µM. It also gave a GI50 (HCC-2998 colon) of 3.14 µM, a TGI (HCC-2998 colon) of 9.98 µM and a GI50 (NCI-H522 lung) of 2 µM. The TGI (NCI-H522 lung) was 4.93 µM, the GI50 (T-47D breast) was 1.55 µM and the TGI (T-47D breast) was 5.06 µM. It also gave a GI50 (SK-MEL-28 melanoma) of 2.06 µM, a TGI (SK-MEL-28 melanoma) of 3.85 µM and a GI50 (SK-MEL-2 melanoma) of 7.2 µM. For the same compound, the TGI (SK-MEL-2 melanoma) was 32.8 µM, the GI50 (HCT-15 colon) was 1.36 µM and the TGI (HCT-15 colon) was 3.13 µM. For the same compound, the GI50 (MDA-MB-231 breast) was 1.84 µM, the TGI (MDA-MB-231 breast) was 4.63 µM and the GI50 (SF-539 CNS) was 1.92 µM. The TGI (SF-539 CNS) was 3.95 µM, the GI50 (UACC-257 melanoma) was 1.7 µM and the TGI (UACC-257 melanoma) was 3.27 µM. For the same compound, the GI50 (DU-145 prostate) was 1.87 µM, the TGI (DU-145 prostate) was 3.41 µM and the GI50 (SW-620 colon) was 1.13 µM. For the same compound, the TGI (SW-620 colon) was 3.73 µM, the GI50 (UO-31 renal) was 1.37 µM and the TGI (UO-31 renal) was 2.75 µM. The GI50 (OVCAR-5 ovarian) was 5.07 µM, the TGI (OVCAR-5 ovarian) was 19.8 µM and the GI50 (SN12C renal) was 2.31 µM. The TGI (SN12C renal) was 6.51 µM, the GI50 (NCI-H226 lung) was 1.89 µM and the TGI (NCI-H226 lung) was 4.72 µM. It also gave a GI50 (MDA-MB-435) of 2.12 µM, a TGI (MDA-MB-435) of 4.49 µM and a GI50 (MALME-3M melanoma) of 1.9 µM. The TGI (MALME-3M melanoma) was 3.78 µM, the GI50 (KM12 colon) was 70.3 µM and the TGI (KM12 colon) was > 100 µM. The GI50 (A549 NSCLC) was > 100 µM, the TGI (A549 NSCLC) was > 100 µM and the GI50 (ACHN renal) was 1.82 µM. For the same compound, the TGI (ACHN renal) was 3.42 µM, the GI50 (NCI-H460 lung) was > 100 µM and the TGI (NCI-H460 lung) was > 100 µM. The GI50 (SK-OV-3 ovarian) was > 100 µM, the TGI (SK-OV-3 ovarian) was > 100 µM and the GI50 (UACC-62 melanoma) was 2.74 µM. The TGI (UACC-62 melanoma) was 10.7 µM, the GI50 (HT29 colon) was 2.81 µM and the TGI (HT29 colon) was 7.43 µM. For the same compound, the GI50 (OVCAR-4 ovarian) was 1.69 µM, the TGI (OVCAR-4 ovarian) was 4.31 µM and the GI50 (SNB-19 CNS) was 11.6 µM. The TGI (SNB-19 CNS) was > 100 µM, the GI50 (BT-549 breast) was 1.78 µM and the TGI (BT-549 breast) was 3.33 µM. The GI50 (K-562 leukemia) was 0.291 µM, the TGI (K-562 leukemia) was 2.23 µM and the GI50 (A498 renal) was 40.2 µM. For the same compound, the TGI (A498 renal) was > 100 µM, the GI50 (SF-268 CNS) was 3.57 µM and the TGI (SF-268 CNS) was 16.5 µM. It also gave a GI50 (HCT-116 colon) of 0.569 µM, a TGI (HCT-116 colon) of 2.02 µM and a GI50 (RXF 393 renal) of 1.57 µM. The TGI (RXF 393 renal) was 2.95 µM, the GI50 (HS 578T breast) was 5.46 µM and the TGI (HS 578T breast) was 59.7 µM. The GI50 (IGROV1 ovarian) was 1.82 µM, the TGI (IGROV1 ovarian) was 4.04 µM and the GI50 (SF-295 CNS) was > 100 µM. The TGI (SF-295 CNS) was > 100 µM, the GI50 (786-0 renal) was 1.84 µM and the TGI (786-0 renal) was 3.7 µM. It also gave a GI50 (NCI/ADR-RES ovarian) of 2.62 µM, a TGI (NCI/ADR-RES ovarian) of 8.06 µM and a GI50 (EKVX NSCLC) of 1.68 µM. For the same compound, the TGI (EKVX NSCLC) was 3.98 µM, the GI50 (OVCAR-3 ovarian) was 1.61 µM and the TGI (OVCAR-3 ovarian) was 3.03 µM. The GI50 (CAKI-1 renal) was 1.53 µM, the TGI (CAKI-1 renal) was 3.01 µM and the GI50 (MOLT-4 leukemia) was 0.347 µM. The TGI (MOLT-4 leukemia) was 2.99 µM, the GI50 (OVCAR-8 ovarian) was 3.26 µM and the TGI (OVCAR-8 ovarian) was > 100 µM. It also gave a GI50 (TK-10 renal) of 2.28 µM, a TGI (TK-10 renal) of 3.75 µM and a GI50 (RPMI-8226 leukemia) of 2.23 µM. It also gave a TGI (RPMI-8226 leukemia) of 6.08 µM, a GI50 (M14 melanoma) of 1.74 µM and a TGI (M14 melanoma) of 3.36 µM. The GI50 (MCF7 breast) was 1.95 µM, the TGI (MCF7 breast) was 5.03 µM and the GI50 (HOP-62 NSCLC) was > 100 µM. The TGI (HOP-62 NSCLC) was > 100 µM, the GI50 (PC-3 prostate) was 3.7 µM and the TGI (PC-3 prostate) was 20.7 µM. The GI50 (HOP-92 NSCLC) was 1.49 µM, the TGI (HOP-92 NSCLC) was 3.19 µM and the GI50 (SR leukemia) was 0.367 µM. It also gave a TGI (SR leukemia) of 2.37 µM, a GI50 (NCI-H23 lung) of 2.02 µM and a TGI (NCI-H23 lung) of 5.58 µM. It also gave a GI50 (COLO 205 colon) of 2.21 µM and a TGI (COLO 205 colon) of 4.83 µM.
